For the assay, the target named is T1, CCR1 (Homo sapiens, UniProt P32246).
T1 sequence (P32246 1-355): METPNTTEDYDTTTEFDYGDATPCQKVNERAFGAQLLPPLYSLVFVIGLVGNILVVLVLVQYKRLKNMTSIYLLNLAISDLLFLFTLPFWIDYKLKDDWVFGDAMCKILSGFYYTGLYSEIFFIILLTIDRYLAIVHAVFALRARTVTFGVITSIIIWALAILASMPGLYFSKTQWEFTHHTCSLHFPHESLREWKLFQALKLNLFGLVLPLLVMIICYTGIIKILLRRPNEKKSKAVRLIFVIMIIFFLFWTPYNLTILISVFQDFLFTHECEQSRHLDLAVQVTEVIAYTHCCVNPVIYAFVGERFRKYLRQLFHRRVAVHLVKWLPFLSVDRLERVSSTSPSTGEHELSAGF
Description: Method A: calcium flux in CCR1 transfected cells (Fluo-4 NW, FLIPR TETRA), block of the CCR1/MIP-1α interaction. In kind it is cell-based. As to conditions: Method A: Fluo-4 NW, MIP-1 alpha at EC80. The procedure: Compounds are assessed for the ability to block the interaction of CCR1 and MIP-1α in a functional cellular assay measuring calcium flux in CCR1 transfected cells.
Method A: Non-adherent cells purchased from Chemicon Corporation (HTS005C), stably expressing recombinant CCR1 and G-alpha-16 are grown in RPMI 1640 medium (Mediatech 10-080-CM) supplemented with 10% heat-inactivated FBS, 0.4 mg/mL Geneticin and penicillin/streptomycin. On the day of the assay, the cells are transferred to a beaker and dye-loaded in bulk using a Fluo-4 NW Calcium Assay Kit with probenecid (Invitrogen F36205) at 0.8E6 cells/mL for 1 hour at room temperature. After 1 hour, they are seeded in a 384-well tissue culture-treated plate at a density of 20,000 cells/well. Appropriately diluted test compound is added to the well to achieve a top concentration of 3,000 nM (diluted 4-fold with 10 doses total). The final concentration of DMSO is 1%. The buffer is HBSS (Invitrogen 14025) with 20 mM HEPES at pH 7.4. The cells are allowed to incubate 1 hour in the dark at room temperature. The plates are transferred to the FLIPR TETRA where MIP-1 alpha in 1% BSA is added at the EC80 final concentration. Wells+/−MIP-1 alpha containing diluted DMSO instead of compound serve as the controls. Intracellular calcium flux is recorded on the FLIPR TETRA, using excitation at 470/495 nm and emission at 515/575 nm. Data are analyzed using Activity Base software.
In general terms: Calcium flux is commonly read through the fluorescence of an indicator in the cells.

What is called IC50 is the concentration at which inhibition is half-maximal.

`C=CC[C@@H](NC(=O)c1cncc2c1cnn2-c1ccc(F)cc1)c1ccnc(S(C)(=O)=O)c1` [1-(4-Fluorophenyl)-1H-pyrazolo[3,4-c]pyridine-4-carboxylic acid [(R)-1-(2-methanesulfonyl-pyridin-4-yl)-but-3-enyl]-amide]: the IC50 amounted to 1 nM.

Consider `CC(=O)OCCN(C)S(=O)(=O)c1ccc(CNC(=O)c2cncc3c2cnn3-c2ccc(F)cc2)cc1` [Acetic acid 2-{[4-({[1-(4-fluorophenyl)-1H-pyrazolo[3,4-c]pyridine-4-carbonyl]-amino}-methyl)-benzenesulfonyl]-methyl-amino}-ethyl ester], for which the IC50 amounted to 2 nM.

For `CCCC(NC(=O)c1cncc2c1cnn2-c1ccc(F)cc1)c1cncc(S(N)(=O)=O)c1` (stereo not shown) [1-(4-Fluorophenyl)-1H-pyrazolo[3,4-c]pyridine-4-carboxylic acid [1-(5-sulfamoyl-pyridin-3-yl)-butyl]-amide], the IC50 turned out to be 0.4 nM.

As for `CS(=O)(=O)Nc1ccc(CNC(=O)c2cncc3c2cnn3-c2ccc(F)cc2)cn1` [1-(4-Fluorophenyl)-1H-pyrazolo[3,4-c]pyridine-4-carboxylic acid (6-methanesulfonylamino-pyridin-3-ylmethyl)-amide], the IC50 is 25 nM.

As for `COCCN(c1ccc(CNC(=O)c2cncc3c2cnn3-c2ccc(Cl)cc2)cn1)S(C)(=O)=O` [1-(4-Chlorophenyl)-1H-pyrazolo[3,4-c]pyridine-4-carboxylic acid {6-[methanesulfonyl-(2-methoxy-ethyl)-amino]-pyridin-3-ylmethyl}-amide], the IC50 worked out at 5 nM.

As for `C[C@H](NC(=O)c1cncc2c1cnn2-c1ccc(F)cc1)c1cccc(S(C)(=O)=O)n1` [1-(4-Fluorophenyl)-1H-pyrazolo[3,4-c]pyridine-4-carboxylic acid [(S)-1-(6-methanesulfonyl-pyridin-2-yl)-ethyl]-amide], the IC50 was 6 nM.

Take `CCCC(NC(=O)c1cncc2c1cnn2-c1ccc(Cl)cc1)c1ccnc(S(C)(=O)=O)c1` (stereo not shown) [1-(4-Chlorophenyl)-1H-pyrazolo[3,4-c]pyridine-4-carboxylic acid [1-(2-methanesulfonyl-pyridin-4-yl)-butyl]-amide]: the half-inhibitory concentration (IC50) was determined as 0.4 nM.

Regarding `CC(NC(=O)c1cncc2c1cnn2-c1ccc(F)cc1)c1ccnc(Br)c1` (stereo not shown) [1-(4-Fluorophenyl)-1H-pyrazolo[3,4-c]pyridine-4-carboxylic acid [1-(2-bromopyridin-4-yl)-ethyl]-amide], the IC50 worked out at 1 nM.

For `CCC[C@H](NC(=O)c1cncc2c1cnn2-c1ccc(F)cc1)c1cncc(S(N)(=O)=O)c1` [1-(4-Fluorophenyl)-1H-pyrazolo[3,4-c]pyridine-4-carboxylic acid [(S)-1-(5-sulfamoyl-pyridin-3-yl)-butyl]-amide], the IC50 was found to be 0.3 nM.

Regarding `O=C(NCc1ccc(CS(=O)(=O)NC2CCCCC2)cc1)c1cncc2c1cnn2-c1ccc(F)cc1` [1-(4-Fluorophenyl)-1H-pyrazolo[3,4-c]pyridine-4-carboxylic acid 4-cyclohexylsulfamoylmethyl-benzylamide], the half-maximal inhibitory concentration (IC50) amounted to 11 nM.

Turning to `CNS(=O)(=O)c1ccc(CNC(=O)c2cncc3c2cnn3-c2ccc(F)cc2)c(Cl)c1` [1-(4-Fluorophenyl)-1H-pyrazolo[3,4-c]pyridine-4-carboxylic acid 2-chloro-4-methylsulfamoyl-benzylamide], the IC50 is 0.2 nM.

As to `CN(C)S(=O)(=O)Nc1ccc(CNC(=O)c2cncc3c2cnn3-c2ccc(F)cc2)cn1` [1-(4-Fluorophenyl)-1H-pyrazolo[3,4-c]pyridine-4-carboxylic acid [6-(dimethylamino-sulfonylamino)-pyridin-3-ylmethyl]-amide], the IC50 was 24 nM.

`CS(=O)(=O)Nc1ccc(CNC(=O)c2cncc3c2cnn3-c2ccc(F)cc2)cc1` [1-(4-Fluorophenyl)-1H-pyrazolo[3,4-c]pyridine-4-carboxylic acid 4-methanesulfonylamino-benzylamide]: the IC50 was determined as 7 nM.
